Source: patent publication EP0462621A2, “Use of particular compounds for manufacture of pharmaceutical formulations for treatment against various parasites, mycoplasmas, other indications and other infections” (Prendergast, Patrick Thomas, priority 1990, dated 1991)

Columns and labels:
[1] = system: L major/L mexicana; assay: Amastigote-promastigote (AM-PRO) transformation, in-vitro; type: cell-based; conditions: Lm.
[2] = system: L major/L mexicana; assay: Amastigotes (AM) in mouse or human macrophages (mos), in-vitro; type: cell-based; conditions: Lm., Amastigote
Excerpt: (§1) Amastigotes of Leishmania can be cultivated in a wide range of mammalian cells, some of which may be used in in-vitro screens. These include (1) a Sticker dog sarcoma (fibroblast) cell line, (2) transformed rodent macrophage cell lines, (3) primary isolated mouse peritoneal macrophages (MP mo), and (4) human monocyte-derived macrophages (HM mo). The methods are similar for all models. Amastigote or promastigote infected cells are maintained in a medium containing the drug for 4-7 days, at 37 C for L. donovani and 33-35 C for L. major and L. mexicana. Drug activity is then assessed by counting (I) the number of infected host cells and/or (II) the number of amastigotes/100 host cells.
(§2) In-vitro and in-vivo models were used to test activities of a selection of many compounds. Those activities are summarized in Tables 1-3, showing variation between systems and species. Activities measured in the MP mo and HM mo models have shown the best correlation with results obtained in hamster and mouse models.

[3] = system: L donovani; assay: as above; type: cell-based; conditions: Ld., Amastigote
Excerpt: as §1, §2

[4] = system: L donovani; assay: Leishmania mouse/hamster models, in-vivo; conditions: Ld. Further: key: - no/poor activity,; + fair/moderate activity,; ++ good/excellent activity.
Excerpt: as §2

[5] = system: T.b. brucei, T.b. gambiense and T.b. rhodesiense; assay: Isolated bloodstream trypomastigote (TRY) in-vitro screen; type: cell-based
Experimental: (§3) Primary screening for new trypanocides has made extensive use of rodent systems, in which host survival time is a simple indicator of drug activity. In-vitro screens have used a variety of trypomastigote types (see Table 3, below). […] Most early in-vitro screens employed a short test in which bloodstream trypomastigotes were isolated from an infected rodent and maintained for up to 24 h in a simple drug-containing media. Two significant modifications of this technique include maintaining isolated bloodstream trypomastigotes in drug-containing media for 3-4 hours at 37° C in micro-titre plates and their subsequent viability assessed by the uptake of radiolabelled precursors or motility and infectivity to mice.
In-vitro studies on isolated bloodstream trypomastigotes were also used in the rational biochemical approaches towards the chemotherapy of T. brucei infections involving inhibitors of carbohydrate catabolism salicyl hydroxamic acid plus glycerol), of polyamine synthesis (methylgyoxal bis-guanylhydrazone and - DFMO), and of surface coat glycoprotein synthesis (Tunicamycin). In these studies, activity of the compounds are shown in-vitro and in-vivo, whereas the sensitivity of isolated bloodstream trypomastigotes to toxic oxygen radicals generated by naphthoquinones was not shown by the parasites in mice. The activity of the standard anti-trypanosomals-melarsoprol, pentamidine and suramin and tested compounds according to the present invention in in-vitro systems is shown in Table 3.
as §2

[6] = system: T.b. brucei, T.b. gambiense and T.b. rhodesiense; assay: Procyclic trypomastigote (TRY) in-vitro screen; type: cell-based; further: key: - no/poor activity,; + fair/moderate activity,; ++ good/excellent activity
Experimental: as §3, §2

[7] = system: T.b. brucei, T.b. gambiense and T.b. rhodesiense; assay: African trypanosomiasis mouse model, in-vivo
Experimental: as §3, §2

[8] = system: T.b. brucei, T.b. gambiense and T.b. rhodesiense; assay: Cultivated bloodstream trypomastigote (TRY) in-vitro screen; type: cell-based
Excerpt: Culture systems developed in the last decade have used mammalian cell feeder layers to support the growth of dividing populations of bloodstream trypomastigotes of T. brucei spp. Some of these systems have been used in chemotherapy studies, including; (1) bovine fibroblast culture - T. brucei models to test some standard and experimental compounds, (2) murine bone marrow culture - T.b. gambiense model to screen inosine analogues and platinum and hypolipidemic compounds, and (3) Microtus embryonic fibroblast culture (MEF) - T.b. rhodesiense model to test standard and experimental drugs. These systems give a good indication of in-vivo activity (see Table 3). They measure activity against dividing cells rather than specific macromolecular synthesis pathways and can be readily established in micro-titre plates. The MEF and bone marrow cell feeder layers can be used to grow a range of strains of T. brucei spp., offering the possibility of examining variations in drug susceptibility and resistance between strains. The presence of a feeder layer, however, limits the opportunities for the automation of these systems.
as §2

[9] = system: L major/L mexicana; assay: Leishmania promastigote (PRO) in-vitro screen; type: cell-based; conditions: Lm.
Excerpt: (§4) Following initial infection, the amastigote is the only form present in the mammalian host, surviving and dividing in various macrophage populations. Differences between the promastigote and amastigote in form and habitat are not matched by known biochemical dissimilarities. However, the drug susceptibility of the cultured promastigote, used in many early chemotherapy screens, contrasts markedly with that of the amastigote (see Table 1, below), most importantly to the clinically used pentavalent antimonials - sodium stibogluconate (Pentostam) and meglumine antimoniate (Glucantime).
as §1, §2

[10] = system: L donovani; assay: Leishmania promastigote (PRO) in-vitro screen; type: cell-based; conditions: Ld.
Excerpt: as §4, §1, §2

[11] = system: L major/L mexicana; assay: Amastigotes (AM) in cell lines, in-vitro; type: cell-based; conditions: Lm., Amastigote; further: key: - no/poor activity,; + fair/moderate activity,; ++ good/excellent activity
Excerpt: as §1, §2

[12] = system: L donovani; assay: Amastigotes (AM) in cell lines, in-vitro; type: cell-based; conditions: Ld., Amastigote; further: key: - no/poor activity,; + fair/moderate activity,; ++ good/excellent activity
Excerpt: as §1, §2

[13] = system: L donovani; assay: Amastigote-promastigote (AM-PRO) transformation, in-vitro; type: cell-based; conditions: Ld.
[14] = system: L major/L mexicana; assay: Leishmania mouse/hamster models, in-vivo; conditions: Lm. Further: key: - no/poor activity,; + fair/moderate activity,; ++ good/excellent activity.
Excerpt: as §2

[15] = system: HIV-I; assay: Experiment la(a): macrophage cells, HIV-I, p24 antigen capture radio-immunoassay; type: cell-based; conditions: for TITER: control titer 100000; for wells positive for HIV-I p24, LOG VIRUS DILUTION -1 / wells positive for HIV-I p24, LOG VIRUS DILUTION -2 / wells positive for HIV-I p24, LOG VIRUS DILUTION -3 / wells positive for HIV-I p24, LOG VIRUS DILUTION -4 / wells positive for HIV-I p24, LOG VIRUS DILUTION -5 / wells positive for HIV-I p24, LOG VIRUS DILUTION -6: duplicate runs
Experimental: Fresh macrophage cultures were obtained by incubation of mononuclear cells obtained from a leukopak directly in the wells of a microtiter plate having 6 wells per row. After removal of non-adherent cells, each row of the adherent macrophages was infected with 10-fold serial dilutions of HIV-I, with the use of polybrene to enhance uptake of the virus. After one to two hours, the virus inoculum was removed and replaced with fresh normal growth medium. The fresh medium for each row contained a particular concentration of AZT, dideoxy cytidine (ddC), or compound la, as indicated by the left-hand column of Table la(a). The first row of wells acted as a control, and to it was added fresh medium containing none of the three drugs. Medium levels were maintained for two to four weeks to allow replication of the virus to take place, with at least one complete fluid change to remove residual virus inoculum. The contents of each well were then tested for the level of HIV p24 antigen present using a commercially available antigen capture kit employing a radio-immunoassay which can detect as little as 10'^9gm of p24 present in a sample. The above procedure was done in duplicate runs.
The results were interpreted as follows: 2/2, for example, means that both the corresponding wells of both runs were positive for HIV-I p24, while 0/2 means that neither well was positive. The titers are given in the next to last column; where 1/2 wells was positive, an intermediate value was given to the titer that is half way between the two dilutions when calculated on a logarithmic scale. 3 µM IPA was positive in both wells at a dilution of 1/10,000 and in neither well at 1/100,000. Thus, one half log interval between 10^4 and 10^5 is 10^4.5, or 30,000.

[16] = system: B lymphocytes; assay: Lymphocyte blastogenesis assay, B lymphocytes (PWM); type: cell-based, human
Experimental: (§5) T and B lymphocytes from normal human donors were incubated for 30 minutes at various dose levels of the compounds indicated. The lymphocytes were added in triplicate wells in gentamicin and phytohemagglutinin (PHA) (a T cell mitogen), pokeweed mitogen (PWM) (a B cell mitogen) and allogeneic mononuclear cells (mixed leukocyte cultures; MLC) or media containing the above additives. The lymphocyte blastogenesis assay is described in detail below.
(§6) The data are represented as the mean of the three replicates. The results are presented in Charts la(e) (i) and la(e) (ii) (Figs. 1 and 2). […] A reduction of both T lymphocytes' abilities to proliferate was obtained when 100 u.M or greater concentrations of IPA was added to the cell cultures. Proliferative activity of T lymphocytes by 25% at the 30 u.M concentration of IPA in the experiment.
(§7) • 1. Mononuclear cells are separated from whole blood by differential centrifugation using a synthetic separation medium, or are thawed from a cryopreserved preparation. The cells are washed and resuspended in media (RPMI - 1640, L-Glutamine 2mM, Herpes Buffer 25mM, Gentamicin 50 ug/ml, Human AB Serum-heat inactivated (56°, 30°) 20%). • 2. A viable cell count is determined. • 3. Cell concentration is adjusted to 2 x 10^6 /ml in media. • 4. The cell suspension is added to wells of a 96-well flat bottom plate in 0.1 ml aliquots (2 x 10^5 cells). • 5. The selected mitogens and/or antigens (in media without serum) are added to the cells in the wells also in 0.1 ml aliquots. • 6. The cultures are incubated for 3-7 days (depending upon the mitogen or antigen) at 37° C in a humidified 5% C02 atmosphere. • 7. Six to eight hours before termination of cultures 0.05 ml (1 µCi) of ^3HTdR sp. act 6.7 Ci/mM (20 µCi/ml stock) is added to each well. • 8. At termination of cultures the cells are harvested onto strips of scintillation-grade fibreglass paper using a multiple sample harvester. • 9. Perforated disks from the fibreglass paper of the harvested cultures are placed each into scintillation vials to which is then added 5 ml of toluene based scintillation cocktail. • 10. The vials are counted in a liquid scintillation counter for one minute where the amount of incorporated ^3HTdR is determined.
(§8) net CPM = xCPM of mitogen/antigen cultures - xCPM of media cultures.

[17] = system: T lymphocytes; assay: Lymphocyte blastogenesis assay, T lymphocytes (PHA); type: cell-based, human; conditions: 100 - 1 µM (Figs. 11 and 12)
Experimental: as §5, §6, §7, §8

O.O.O.O.O.O.O.O.O.O=C([O-])[C@@H]1[O][Sb]2([O-])([O][Sb]34([OH])[O][C@H]([C@H](O)CO)[C@H]([O]3)[C@H](C(=O)[O-])[O]4)[O][C@H]([C@H](O)CO)[C@@H]1[O]2.[Na+].[Na+].[Na+] [Sodium stibogluconate, sodium stibogluconate, reference compound]
Activity, AM-PRO transform-ation [1]: + +
Activity, AM in mouse or human mos [2]: + +
Activity, AM in mouse or human mos [3]: + +
Activity, mouse/ hamster models [4]: + +

Cc1ccc(C(=O)Nc2ccc(S(=O)(=O)O)c3cc(S(=O)(=O)O)cc(S(=O)(=O)O)c23)cc1NC(=O)c1cccc(NC(=O)Nc2cccc(C(=O)Nc3cc(C(=O)Nc4ccc(S(=O)(=O)O)c5cc(S(=O)(=O)O)cc(S(=O)(=O)O)c45)ccc3C)c2)c1 [Suramin, suramin, reference compound]
activity, isolated bloodstream TRY [5]: -,+
activity, procyclic TRY [6]: -
activity, mouse model [7]: + +
activity, cultivated bloodstream TRY [8]: +

N=C(N)c1ccc(OCCCCCOc2ccc(C(=N)N)cc2)cc1 [Pentamidine, pentamidine, reference compound]
activity, isolated bloodstream TRY [5]: + +
Activity, PRO [9]: + +
Activity, PRO [10]: + +
Activity, AM in cell lines [11]: +
Activity, AM in cell lines [12]: -
Activity, AM-PRO transform-ation [1]: + +
Activity, AM in mouse or human mos [2]: + +
Activity, AM in mouse or human mos [3]: +
Activity, AM-PRO transform-ation [13]: + +
activity, mouse model [7]: + +
Activity, mouse/ hamster models [14]: -
Activity, mouse/ hamster models [4]: +
activity, cultivated bloodstream TRY [8]: + +

Nc1nc(N)nc(Nc2ccc([As]3SCC(CO)S3)cc2)n1 (stereo not shown) [Melarsoprol, melarsoprol, reference compound]
activity, isolated bloodstream TRY [5]: + +
activity, mouse model [7]: + +
activity, cultivated bloodstream TRY [8]: + +

Nc1ccn([C@H]2CC[C@@H](CO)O2)c(=O)n1 [ddC, dideoxycytidine, reference compound]
activity at 10 µM ([15]; Human immunodeficiency virus 1, Macrophage, drug 10 μM, titer relative to control, read-out: PERCENT OF CONTROL): 10%
activity at 100 µM ([15]; Human immunodeficiency virus 1, Macrophage, drug 100 μM, titer relative to control, read-out: PERCENT OF CONTROL): 3%
TITER ([15]; drug 10 μM): 10000
wells positive for HIV-I p24, LOG VIRUS DILUTION -1 ([15]; drug 10 μM): 2/2
wells positive for HIV-I p24, LOG VIRUS DILUTION -2 ([15]; drug 10 μM): 2/2
wells positive for HIV-I p24, LOG VIRUS DILUTION -3 ([15]; drug 10 μM): 2/2
wells positive for HIV-I p24, LOG VIRUS DILUTION -4 ([15]; drug 10 μM): 1/2
wells positive for HIV-I p24, LOG VIRUS DILUTION -5 ([15]; drug 10 μM): 0/2
wells positive for HIV-I p24, LOG VIRUS DILUTION -6 ([15]; drug 10 μM): 0/2
TITER ([15]; drug 100 μM): 3000
wells positive for HIV-I p24, LOG VIRUS DILUTION -1 ([15]; drug 100 μM): 2/2
wells positive for HIV-I p24, LOG VIRUS DILUTION -2 ([15]; drug 100 μM): 2/2
wells positive for HIV-I p24, LOG VIRUS DILUTION -3 ([15]; drug 100 μM): 2/2
wells positive for HIV-I p24, LOG VIRUS DILUTION -4 ([15]; drug 100 μM): 0/2
wells positive for HIV-I p24, LOG VIRUS DILUTION -5 ([15]; drug 100 μM): 0/2
wells positive for HIV-I p24, LOG VIRUS DILUTION -6 ([15]; drug 100 μM): 0/2
reduction in B lymphocyte proliferative responses ([16]; 1 µM): 20 -35%
reduction in B lymphocyte proliferative responses ([16]; 1000 u.M): 80 to 85%
reduction in T lymphocyte function [17]: 10 - 25%
